Experiments:
HIV-1 [1] = assay: microbe, parasite or virus in culture; format: cell-based; conditions: Human immunodeficiency virus 1, HOG.R5, read-out: anti-HIV activity IC50
HIV-1 [2] = conditions: previous discovery; cited from earlier work

| Structure (SMILES) | IC50 (HIV-1 [1]) [µM] | anti-HIV activity (in words) (HIV-1 [2]) |
| --- | --- | --- |
| COc1cc(O)cc2c1C(=O)C[C@@H](c1ccccc1)O2 [Compound 5, alpinetin] | 130 | – |
| C=Cc1c(C)c2cc3nc(c4c5[nH]c(cc6nc(cc1[nH]2)C(C)=C6CC)c(C)c5C(=O)[C@@H]4C(=O)OC)[C@@H](CCC(=O)O)[C@@H]3C [pheophorbide a] | – | potent anti-HIV agent |
